# Key:
# Type in all cases: cell-based
# [1] = tested on: human lung cancer cell line A549; assay: Effect of Gefitinib on proliferation of A549 cell stimulated with human HB-EGF; settings: DAG 0.015%, day 6
# Protocol: This aqueous solution was sterilized at 121°C for 20 min in an autoclave. […] Each plate was cultured by being stood still in a CO2 incubator (37°C, 5% CO2). […] To the culture medium on day 6 was added an ATP reagent (150 µL) (CellTiter-Glo (registered trade mark) Luminescent Cell Viability Assay, manufactured by Promega) to give a suspension, which was stood for about 10 min at room temperature, and the luminescence intensity (RLU value) was measured by FlexStation3 (manufactured by Molecular Devices), and the number of viable cells was measured by subtracting the luminescence value of the medium alone.
# [2] = tested on: human cervical cancer cell line HeLa; assay: HeLa cell proliferation test using Trametinib and MK-2206; settings: day 4 of the static culture
# Protocol: (§1) This aqueous solution was sterilized at 121°C for 20 min in an autoclave. […] Each plate was cultured by being stood still in a CO2 incubator (37°C, 5% CO2). […] The anticancer drugs used were Trametinib (manufactured by Santa Cruz, MEK inhibitor) and MK-2206 (manufactured by Santa Cruz, Akt inhibitor). […]
# [3] = tested on: human lung cancer cell line A549; assay: A549 cell proliferation test using Trametinib and MK-2206; settings: day 4 of the static culture
# Protocol: as §1
# [4] = tested on: human cervical cancer cell line HeLa; assay: Comparison with single layer culture method in cell proliferation test using anticancer drug; settings: day 4
# Protocol: This aqueous solution was sterilized at 121°C for 20 min in an autoclave. […] Each plate was cultured by being stood still in a CO2 incubator (37°C, 5% CO2). […] The anticancer drug used was Adriamycin (manufactured by WAKO), Paclitaxel (manufactured by WAKO) or Mitomycin C (manufactured by WAKO). To the culture medium on day 4 was added an ATP reagent (150 µL) (CellTiter-Glo (registered trade mark) Luminescent Cell Viability Assay, manufactured by Promega) to give a suspension, which was stood for about 10 min at room temperature, and the luminescence intensity (RLU value) was measured by FlexStation3 (manufactured by Molecular Devices), and the number of viable cells was measured by subtracting the luminescence value of the medium alone. For WST-8 measurement, a WST-8 solution (manufactured by DOJINDO Laboratories, 15 µL) was added, the mixture was incubated at 37°C for 100 min, the absorbance at 450 nm was measured by an absorbance spectrometer (manufactured by Molecular Devices, SPECTRA MAX 190), and the number of viable cells was measured by subtracting the absorbance of the medium alone.
# [5] = tested on: human cervical cancer cell line HeLa; assay: Cell proliferation test using various anticancer drugs; settings: DAG 0.030% medium; for cell density: 5 days later
# Protocol: This aqueous solution was sterilized at 121°C for 20 min in an autoclave. […] The anticancer drug used was Adriamycin (manufactured by WAKO), Paclitaxel (manufactured by WAKO) or Mitomycin C (manufactured by WAKO).
# Successively, this plate was cultured by being stood still in a CO2 incubator (37°C, 5% CO2) for 7 days. After culturing for 3, 5, 7 days, to the culture medium was added a WST-8 solution (manufactured by DOJINDO Laboratories, 20 µL), and the mixture was incubated at 37°C for 100 min. The absorbance at 450 nm was measured by an absorbance spectrometer (manufactured by Molecular Devices, SPECTRA MAX 190), and the number of viable cells was measured by subtracting the absorbance of the medium alone. The culture medium containing the cells after 5 days of culture was stirred with a pipette and the obtained stirred solution (20 µL) was mixed with Trypan Blue stain 0.4% (manufactured by Invitrogen, 20 µL) and the cell density was measured under a microscope.
# [6] = drug 0.03 µM, deacylated gellan gum addition group (0.015%)
# [7] = drug 0.03 µM, single layer culture group
# [8] = drug 0.3 µM, deacylated gellan gum addition group (0.015%)
# [9] = drug 0.3 µM, single layer culture group
# [10] = drug 3 µM, deacylated gellan gum addition group (0.015%)
# [11] = drug 3 µM, single layer culture group
# [12] = drug 30 µM, deacylated gellan gum addition group (0.015%)
# [13] = drug 30 µM, single layer culture group
# [14] = drug 0.001 µM, deacylated gellan gum addition group (0.015%)
# [15] = drug 0.001 µM, single layer culture group
# [16] = drug 0.003 µM, deacylated gellan gum addition group (0.015%)
# [17] = drug 0.003 µM, single layer culture group
# [18] = drug 0.01 µM, deacylated gellan gum addition group (0.015%)
# [19] = drug 0.01 µM, single layer culture group
# [20] = drug 0.1 µM, deacylated gellan gum addition group (0.015%)
# [21] = drug 0.1 µM, single layer culture group
# [22] = drug 1 µM, deacylated gellan gum addition group (0.015%)
# [23] = drug 1 µM, single layer culture group
structure (smiles),measurement,setting,value
COc1cc2ncnc(Nc3ccc(F)c(Cl)c3)c2cc1OCCCN1CCOCC1 [Gefitinib],% Control value of the RLU value (ATP measurement),"[1]; 0.1 µM, HB-EGF 100 ng/ml",91 % Control
same,% Control value of the RLU value (ATP measurement),"[1]; 0.1 µM, HB-EGF no addition",89 % Control
same,% Control value of the RLU value (ATP measurement),"[1]; 0.3 µM, HB-EGF 100 ng/ml",74 % Control
same,% Control value of the RLU value (ATP measurement),"[1]; 0.3 µM, HB-EGF no addition",84 % Control
same,% Control value of the RLU value (ATP measurement),"[1]; 1 µM, HB-EGF 100 ng/ml",59 % Control
same,% Control value of the RLU value (ATP measurement),"[1]; 1 µM, HB-EGF no addition",77 % Control
same,% Control value of the RLU value (ATP measurement),"[1]; 3 µM, HB-EGF 100 ng/ml",53 % Control
same,% Control value of the RLU value (ATP measurement),"[1]; 3 µM, HB-EGF no addition",69 % Control
NC1(c2ccc(-c3nc4ccn5c(=O)[nH]nc5c4cc3-c3ccccc3)cc2)CCC1 [MK-2206],% Control value of the RLU value (ATP measurement),[2]; [6],57 % Control
same,% Control value of the RLU value (ATP measurement),[2]; [7],93 % Control
same,% Control value of the RLU value (ATP measurement),[2]; [8],21 % Control
same,% Control value of the RLU value (ATP measurement),[2]; [9],84 % Control
same,% Control value of the RLU value (ATP measurement),[2]; [10],21 % Control
same,% Control value of the RLU value (ATP measurement),[2]; [11],69 % Control
same,% Control value of the RLU value (ATP measurement),[2]; [12],0 % Control
same,% Control value of the RLU value (ATP measurement),[2]; [13],0 % Control
same,% Control value of the RLU value (ATP measurement),[3]; [6],84 % Control
same,% Control value of the RLU value (ATP measurement),[3]; [7],93 % Control
same,% Control value of the RLU value (ATP measurement),[3]; [8],45 % Control
same,% Control value of the RLU value (ATP measurement),[3]; [9],79 % Control
same,% Control value of the RLU value (ATP measurement),[3]; [10],21 % Control
same,% Control value of the RLU value (ATP measurement),[3]; [11],53 % Control
same,% Control value of the RLU value (ATP measurement),[3]; [12],0 % Control
same,% Control value of the RLU value (ATP measurement),[3]; [13],0 % Control
CC(=O)O[C@H]1C(=O)[C@@]2(C)[C@H]([C@H](OC(=O)c3ccccc3)[C@]3(O)C[C@H](OC(=O)[C@H](O)[C@@H](NC(=O)c4ccccc4)c4ccccc4)C(C)=C1C3(C)C)[C@]1(OC(C)=O)CO[C@@H]1C[C@@H]2O [Paclitaxel],% Control value of the RLU value (ATP measurement),[4]; [14],107 % Control
same,% Control value of the absorbance at 450 nm (WST-8 measurement),[4]; [14],125 % Control
same,% Control value of the RLU value (ATP measurement),[4]; [15],95 % Control
same,% Control value of the absorbance at 450 nm (WST-8 measurement),[4]; [15],99 % Control
same,% Control value of the RLU value (ATP measurement),[4]; [16],34 % Control
same,% Control value of the absorbance at 450 nm (WST-8 measurement),[4]; [16],33 % Control
same,% Control value of the RLU value (ATP measurement),[4]; [17],36 % Control
same,% Control value of the absorbance at 450 nm (WST-8 measurement),[4]; [17],32 % Control
same,% Control value of the RLU value (ATP measurement),[4]; [18],18 % Control
same,% Control value of the absorbance at 450 nm (WST-8 measurement),[4]; [18],5 % Control
same,% Control value of the RLU value (ATP measurement),[4]; [19],10 % Control
same,% Control value of the absorbance at 450 nm (WST-8 measurement),[4]; [19],10 % Control
same,% Control value of the RLU value (ATP measurement),[4]; [6],17 % Control
same,% Control value of the absorbance at 450 nm (WST-8 measurement),[4]; [6],3 % Control
same,% Control value of the RLU value (ATP measurement),[4]; [7],4 % Control
same,% Control value of the absorbance at 450 nm (WST-8 measurement),[4]; [7],5 % Control
same,% Control value of the RLU value (ATP measurement),[2]; [14],104 % Control
same,% Control value of the RLU value (ATP measurement),[2]; [15],89 % Control
same,% Control value of the RLU value (ATP measurement),[2]; [16],46 % Control
same,% Control value of the RLU value (ATP measurement),[2]; [17],15 % Control
same,% Control value of the RLU value (ATP measurement),[2]; [18],5 % Control
same,% Control value of the RLU value (ATP measurement),[2]; [19],2 % Control
same,% Control value of the RLU value (ATP measurement),[3]; [14],93 % Control
same,% Control value of the RLU value (ATP measurement),[3]; [15],81 % Control
same,% Control value of the RLU value (ATP measurement),[3]; [16],52 % Control
same,% Control value of the RLU value (ATP measurement),[3]; [17],31 % Control
same,% Control value of the RLU value (ATP measurement),[3]; [18],32 % Control
same,% Control value of the RLU value (ATP measurement),[3]; [19],16 % Control
same,cell density,[5]; drug 0.001 µM,5.3 10^4 cells/mL
same,"cell number (absorbance at 450 nm, WST-8)","[5]; drug 0.001 µM, day 3",0.276
same,"cell number (absorbance at 450 nm, WST-8)","[5]; drug 0.001 µM, day 5",0.223
same,"cell number (absorbance at 450 nm, WST-8)","[5]; drug 0.001 µM, day 7",0.222
same,cell density,[5]; drug 0.01 µM,1.6 10^4 cells/mL
same,"cell number (absorbance at 450 nm, WST-8)","[5]; drug 0.01 µM, day 3",0.019
same,"cell number (absorbance at 450 nm, WST-8)","[5]; drug 0.01 µM, day 5",< 0
same,"cell number (absorbance at 450 nm, WST-8)","[5]; drug 0.01 µM, day 7",< 0
same,cell density,[5]; drug 0.1 µM,0.9 10^4 cells/mL
same,"cell number (absorbance at 450 nm, WST-8)","[5]; drug 0.1 µM, day 3",< 0
same,"cell number (absorbance at 450 nm, WST-8)","[5]; drug 0.1 µM, day 5",< 0
same,"cell number (absorbance at 450 nm, WST-8)","[5]; drug 0.1 µM, day 7",< 0
same,cell density,[5]; drug 1 µM,0.2 10^4 cells/mL
same,"cell number (absorbance at 450 nm, WST-8)","[5]; drug 1 µM, day 3",< 0
same,"cell number (absorbance at 450 nm, WST-8)","[5]; drug 1 µM, day 5",< 0
same,"cell number (absorbance at 450 nm, WST-8)","[5]; drug 1 µM, day 7",< 0
CC(=O)Nc1cccc(-n2c(=O)n(C3CC3)c(=O)c3c(Nc4ccc(I)cc4F)n(C)c(=O)c(C)c32)c1 [Trametinib],% Control value of the RLU value (ATP measurement),[2]; [14],73 % Control
same,% Control value of the RLU value (ATP measurement),[2]; [15],102 % Control
same,% Control value of the RLU value (ATP measurement),[2]; [18],12 % Control
same,% Control value of the RLU value (ATP measurement),[2]; [19],93 % Control
same,% Control value of the RLU value (ATP measurement),[2]; [20],1 % Control
same,% Control value of the RLU value (ATP measurement),[2]; [21],20 % Control
same,% Control value of the RLU value (ATP measurement),[2]; [22],1 % Control
same,% Control value of the RLU value (ATP measurement),[2]; [23],3 % Control
same,% Control value of the RLU value (ATP measurement),[3]; [14],72 % Control
same,% Control value of the RLU value (ATP measurement),[3]; [15],71 % Control
same,% Control value of the RLU value (ATP measurement),[3]; [18],35 % Control
same,% Control value of the RLU value (ATP measurement),[3]; [19],37 % Control
same,% Control value of the RLU value (ATP measurement),[3]; [20],2 % Control
same,% Control value of the RLU value (ATP measurement),[3]; [21],5 % Control
same,% Control value of the RLU value (ATP measurement),[3]; [22],0 % Control
same,% Control value of the RLU value (ATP measurement),[3]; [23],1 % Control

# — patent EP3409761B1, “CULTURE MEDIUM COMPOSITION, AND METHOD FOR CULTURING CELL OR TISSUE USING SAID COMPOSITION” (Nissan Chemical Corporation, priority 2012, dated 2014)
